Data on nine molecules can be found in ChEMBL document CHEMBL1770049, “Synthesis of novel mast cell-stabilising and anti-allergic 1,2,3,4-tetrahydro-1-naphthalenols and related compounds” (Eur J Med Chem, 2011).

The structures appear in SMILES notation. The source made the active and inactive calls. The rule behind the calls is not given here.

One series relates to Mus musculus. Nature of the series: Antiinflammatory activity in Laca mouse assessed as inhibition of arachidonic acid induced ear oedema at 300 ug/ear. It counts as functional, organism-based.
The nature of series [1]: Antiallergic activity in rat Peritoneal mast cell assessed as inhibition of Con A-induced histamine release. Type of series: functional, cell-based.
Series [2] in a line: Lipophilicity, log P of the compound. Type of series: physicochemical. As to conditions: octanol/water.
A short description of series [3]: Antiallergic activity in rat Peritoneal mast cell assessed as inhibition of compound 48/80-induced histamine release. It counts as functional, cell-based.
In another series the test system is Rattus norvegicus. Nature of the series: Antiallergic activity in sensitized rat assessed as inhibition of ovalbumin-induced passive cutaneous anaphylaxis at 3 mg/kg, iv after 30 mins relative to control. It counts as functional. As to conditions: 0.5 h.
The nature of series [4]: Antiallergic activity in rat Peritoneal mast cell assessed as inhibition of ionophore A23187-induced histamine release. It counts as functional, cell-based.
Series [5] can be described thus: Antiallergic activity in rat Peritoneal mast cell assessed as inhibition of compound 48/80-induced histamine release at 20 uM. Type of series: functional.

Turning to `OC1c2ccccc2CCC1(Cc1ccccc1)C1=Cc2ccccc2C1` (stereo not given), in the series with Mus musculus, the result was Active. Further, the half-inhibitory concentration (IC50) in series [1] came out at 0.75 µM; in series [3], 4.1 µM; in series [4], 10 µM. Besides, the logP in series [2] came to 6.3. For the same molecule, the inhibition in vivo at 3 mg/kg in the series with Rattus norvegicus is -5%.
For the molecule `Cc1ccc(CC2(/C=C/c3ccccc3)CCc3ccccc3C2O)cc1` (stereo not given), the 50% inhibitory concentration (IC50) in series [3] came to 9.4 µM.
As for `O=C(O)c1cc(=O)c2c(OCC(O)COc3cccc4oc(C(=O)O)cc(=O)c34)cccc2o1` [CROMOLYN SODIUM], in series [5], the inhibition at 20 µM is 10%. Besides, the inhibition in vivo at 3 mg/kg in the series with Rattus norvegicus came out at 87%.
With `CC(Cc1ccccc1)(C1=Cc2ccccc2CC1)C(O)c1ccccc1` (stereo not given), the outcome with Mus musculus was inactive. For the same molecule, in series [3], the half-maximal inhibitory concentration (IC50) was 3.3 µM.
On to `CC(/C=C/c1ccccc1)(Cc1ccccc1)C(O)c1ccccc1` (stereo not given), for which the IC50 in series [3] came to 70.9 µM.
Still for that read-out and setting: under `O=C1c2ccccc2CCC1C1=Cc2ccccc2CC1` (stereo not given) stands 8 µM.
Regarding `OC1c2ccccc2CCC1(/C=C/c1ccccc1)Cc1ccccc1` (stereo not given), the result in the series with Mus musculus was inactive. In series [2], this molecule had a lipophilicity (logP) of 6.58. Also, the IC50 in series [3] worked out at 55.3 µM. Besides, the inhibition in vivo at 3 mg/kg in the series with Rattus norvegicus is 44%.
Take `OC1c2ccccc2CC1(Cc1ccccc1)C1=Cc2ccccc2CC1` (stereo not given): in the series with Mus musculus, the outcome was inactive. Further, the values for the IC50 in series [1], in series [3] and in series [4] were 3.6 µM, 7.7 µM and 4.7 µM, respectively. The molecule also showed a logP in series [2] of 6.3. In addition, the inhibition in vivo at 3 mg/kg with Rattus norvegicus came out at 2%.
On to `CC(Cc1ccccc1)(C1=Cc2ccccc2C1)C(O)c1ccccc1` (stereo not given), for which, in the series with Mus musculus, the outcome was inactive. In addition, in series [5], the inhibition at 20 µM came to 82%.
